Results reported in PubChem BioAssay AID1919001 (Molecular Pharmacology Branch, DTP, NCI, 2023).
“And” between values parts separate entries of the source, which are not always exact repeats. Equal values may be shown once.

Test system: 699152-130-R-J1-PDC complex spheroid growth
Assay: Anticancer human tumor 699152-130-R-J1-PDC patient-derived pancreatic carcinoma cell line growth inhibition [AhR]
Conditions: for viability, T/C: stronger effect = lower value
Excerpt: Multicellular complex tumor spheroid response to aryl hydrocarbon receptor antagonists in combination with a variety of drugs and investigational agents in selected tumor cell lines
The current study was undertaken to assess response to aryl hydrocarbon receptor antagonists in combination with standard-of-care drugs and investigational agents in solid tumor complex spheroid models. Complex spheroids include a stromal component modeled by human endothelial cells (HUVEC) and fibroblasts modeled by human mesenchymal stem cells (MSCs). The concentration ranges selected for each drug and investigational agent were based upon clinically achievable concentrations if the clinical Cmax of the agent was known.
Compounds. The drugs and investigational agents: BAY 2416964 (NSC825713), GNF351 (NSC835774), CH-223191 (NSC835775), CPI-455 (NSC825282), aza-TdCyd (NSC777586), decitabine (NSC127716), belinostat (NSC758774), entinostat (NSC756642), pevonedistat (NSC761192), tazemetostat (NSC777109), talazoparib (NSC765396), olaparib (NSC753686), selinexor (NSC780203), nedisertib (M3814, NSC802822), bortezomib (NSC756655), venetoclax (NSC766270), doxorubicin (NSC123127), elimusertib (BAY189344, NSC800525), ceralasertib (AZD6738, NSC777638), TAK-243 (NSC785004), alisertib (NSC759677), etoposide (NSC141540), topotecan (NSC609699), eribulin (NSC707389), gemcitabine (NSC613327), carboplatin (NSC241240), cisplatin (NSC119875), and SN-38 (NSC673596) were obtained from the National Cancer Institute (NCI) Developmental Therapeutics Program Chemical Repository (32). The FDA-approved anticancer drug set is available from the Developmental Therapeutics Program at https://dtp.cancer.gov/organization/dscb/obtaining/available plates.htm. […] The stock solutions were prepared in dimethyl sulfoxide (DMSO, Sigma-Aldrich, St. Louis, MO, cat. D2650), except for the platinum compounds which were prepared in saline (Quality Biological, Gaithersburg, MD, cat. 114-055-101), at 800-fold the tested concentration and stored at -70 degrees C prior to their use. All drugs and investigational agents were tested over a range starting from a high concentration at or near the clinical Cmax and decreasing in half-log increments. If the clinical Cmax for an agent had not been determined, the highest concentration tested was 10 microM (Table 1).
Cell Culture. All cells were maintained in an incubator at 37 degrees C and 5% CO2 with 95% humidity. The PDC lines were cultured according to standard operating procedures established by the NCI PDMR (https://pdmr.cancer.gov). Briefly, all PDCs were thawed and cultured in Matrigel-coated flasks prepared with a working solution of 1X Ham's F-12 nutrient mix, without supplementation (Invitrogen, Waltham, MA, cat. 11765054), 100 U/mL penicillin-streptomycin (Invitrogen, cat. 15140122), and 2.5% Matrigel (Corning Inc., Corning, NY, cat. 354248) for the first three passages. All PDCs were cultured in complete DMEM/F-12 media containing advanced DMEM/F-12 (Invitrogen, cat. 12634028), 4.9% defined fetal bovine serum, heat inactivated (HyClone Laboratories Inc., Logan, UT, cat. SH30070.03HI), 389 ng/mL hydrocortisone (Sigma-Aldrich, cat. H4001), 9.7 ng/mL human EGF recombinant protein (Invitrogen, cat. PHG0313), 23.4 microg/mL adenine (Sigma-Aldrich, cat. A2786), 97.3 U/mL penicillin-streptomycin (Invitrogen, cat. 15140122), 1.9 mM L-glutamine (Invitrogen, cat. 25030081), and 9.7 microM Y-27632 dihydrochloride (Tocris Bioscience, Bristol, United Kingdom, cat. 1254). The PDCs were cultured in complete DMEM/F12 media without 10 microM Y-27632 dihydrochloride for at least two passages prior to the screen. The established cell lines NCI-H1341 and […] were cultured in DMEM/F-12, HEPES (Invitrogen, cat. 11330032), 5% defined fetal bovine serum (HyClone Laboratories Inc., cat. SH30070.03), ITS premix universal culture supplement [insulin (5 microg/mL), transferrin (5 microg/mL), and selenious acid (5 ng/mL)] […]

[1] = curve of first compound, second compound 0.1 µM
[2] = curve of first compound, second compound 0.316 µM
[3] = curve of first compound, second compound 1 µM
[4] = curve of first compound, second compound 3.16 µM
[5] = curve of first compound, second compound 10 µM
[6] = second compound 0.1 µM, first compound 0.0316 µM
[7] = second compound 0.1 µM, first compound 0.1 µM
[8] = second compound 0.1 µM, first compound 0.316 µM
[9] = second compound 0.1 µM, first compound 1 µM
[10] = second compound 0.1 µM, first compound 3.16 µM
[11] = second compound 0.1 µM, first compound 10 µM
[12] = second compound 0.316 µM, first compound 0.0316 µM
[13] = second compound 0.316 µM, first compound 0.1 µM
[14] = second compound 0.316 µM, first compound 0.316 µM
[15] = second compound 0.316 µM, first compound 1 µM
[16] = second compound 0.316 µM, first compound 3.16 µM
[17] = second compound 0.316 µM, first compound 10 µM
[18] = second compound 1 µM, first compound 0.0316 µM
[19] = second compound 1 µM, first compound 0.1 µM
[20] = second compound 1 µM, first compound 0.316 µM
[21] = second compound 1 µM, first compound 1 µM
[22] = second compound 1 µM, first compound 3.16 µM
[23] = second compound 1 µM, first compound 10 µM
[24] = second compound 3.16 µM, first compound 0.0316 µM
[25] = second compound 3.16 µM, first compound 0.1 µM
[26] = second compound 3.16 µM, first compound 0.316 µM
[27] = second compound 3.16 µM, first compound 1 µM
[28] = second compound 3.16 µM, first compound 3.16 µM
[29] = second compound 3.16 µM, first compound 10 µM
[30] = second compound 10 µM, first compound 0.0316 µM
[31] = second compound 10 µM, first compound 0.1 µM
[32] = second compound 10 µM, first compound 0.316 µM
[33] = second compound 10 µM, first compound 1 µM
[34] = second compound 10 µM, first compound 3.16 µM
[35] = second compound 10 µM, first compound 10 µM
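Note: compound exposure lasted 7 days after spheroids had grown for 3 days.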

Structure (SMILES)	IC50 [1]	IC50 [2]	IC50 [3]	IC50 [4]	IC50 [5]	viability, T/C [6]	viability, T/C [7]	viability, T/C [8]	viability, T/C [9]	viability, T/C [10]	viability, T/C [11]	viability, T/C [12]	viability, T/C [13]	viability, T/C [14]	viability, T/C [15]	viability, T/C [16]	viability, T/C [17]	viability, T/C [18]	viability, T/C [19]	viability, T/C [20]	also measured
CC1(C)CCC(CN2CCN(c3ccc(C(=O)NS(=O)(=O)c4ccc(NCC5CCOCC5)c([N+](=O)[O-])c4)c(Oc4cnc5[nH]ccc5c4)c3)CC2)=C(c2ccc(Cl)cc2)C1 + Cc1cncc(-c2nc(NCCc3c[nH]c4ccccc34)c3ncn(C(C)C)c3n2)c1	> 10 µM	> 10 µM	> 10 µM	> 10 µM	< 0.0316 µM	101%	111%	124%	106%	109%	97.4%	114%	110%	105%	107%	114%	121%	127%	134%	127%	viability, T/C [21]: 117%; viability, T/C [22]: 120%; viability, T/C [23]: 128%; viability, T/C [24]: 121%; viability, T/C [25]: 127%; viability, T/C [26]: 130%; viability, T/C [27]: 123%; viability, T/C [28]: 125%; viability, T/C [29]: 128%; viability, T/C [30]: 19.8%; viability, T/C [31]: 18.4%; viability, T/C [32]: 23.2%; viability, T/C [33]: 23.7%; viability, T/C [34]: 27.9%; viability, T/C [35]: 22.8%
COc1cc(C2c3cc4c(cc3C(OC3OC5COC(C)OC5C(O)C3O)C3COC(=O)C23)OCO4)cc(OC)c1O (configuration not stated) + Cc1ccccc1N=Nc1ccc(NC(=O)c2ccnn2C)c(C)c1	> 10 µM	4.1 µM	> 10 µM	7.2 µM	> 10 µM	96.8%	117%	74.5%	62.5%	48.2%	48.2%	95.9%	88.8%	66.2%	62.1%	53.6%	43.4%	104%	106%	81%	viability, T/C [21]: 62.1%; viability, T/C [22]: 60.6%; viability, T/C [23]: 50.5%; viability, T/C [24]: 108%; viability, T/C [25]: 89.4%; viability, T/C [26]: 65.4%; viability, T/C [27]: 62.5%; viability, T/C [28]: 54.4%; viability, T/C [29]: 47.3%; viability, T/C [30]: 106%; viability, T/C [31]: 88.7%; viability, T/C [32]: 55%; viability, T/C [33]: 65.1%; viability, T/C [34]: 65.1%; viability, T/C [35]: 57.1%
CC1(C)CCC(CN2CCN(c3ccc(C(=O)NS(=O)(=O)c4ccc(NCC5CCOCC5)c([N+](=O)[O-])c4)c(Oc4cnc5[nH]ccc5c4)c3)CC2)=C(c2ccc(Cl)cc2)C1	–	–	–	–	–	–	–	–	–	–	–	–	–	–	–	–	–	–	–	–	viability, T/C (compound 0.0316 µM): 99.2% and 99% and 94.1%; viability, T/C (compound 0.1 µM): 122% and 97.6% and 103%; viability, T/C (compound 0.316 µM): 110% and 102% (2×); viability, T/C (compound 1 µM): 100% and 106% and 101%; viability, T/C (compound 3.16 µM): 106% and 89.5% and 115%; viability, T/C (compound 10 µM): 94% and 64.3% and 58.6%; IC50 (curve of compound): > 10 µM
